Results: paper PMC3271735 (Journal of the American Chemical Society, 2012)

How the values were obtained:
Assay type in all cases: biochemical
Conditions in all cases: 100 μM inhibitor
Sirt1 = biological target: T1, Sirt1 (Homo sapiens, UniProt Q96EB6); test: Sirt1 inhibition assay
T1 sequence (Q96EB6 1-747): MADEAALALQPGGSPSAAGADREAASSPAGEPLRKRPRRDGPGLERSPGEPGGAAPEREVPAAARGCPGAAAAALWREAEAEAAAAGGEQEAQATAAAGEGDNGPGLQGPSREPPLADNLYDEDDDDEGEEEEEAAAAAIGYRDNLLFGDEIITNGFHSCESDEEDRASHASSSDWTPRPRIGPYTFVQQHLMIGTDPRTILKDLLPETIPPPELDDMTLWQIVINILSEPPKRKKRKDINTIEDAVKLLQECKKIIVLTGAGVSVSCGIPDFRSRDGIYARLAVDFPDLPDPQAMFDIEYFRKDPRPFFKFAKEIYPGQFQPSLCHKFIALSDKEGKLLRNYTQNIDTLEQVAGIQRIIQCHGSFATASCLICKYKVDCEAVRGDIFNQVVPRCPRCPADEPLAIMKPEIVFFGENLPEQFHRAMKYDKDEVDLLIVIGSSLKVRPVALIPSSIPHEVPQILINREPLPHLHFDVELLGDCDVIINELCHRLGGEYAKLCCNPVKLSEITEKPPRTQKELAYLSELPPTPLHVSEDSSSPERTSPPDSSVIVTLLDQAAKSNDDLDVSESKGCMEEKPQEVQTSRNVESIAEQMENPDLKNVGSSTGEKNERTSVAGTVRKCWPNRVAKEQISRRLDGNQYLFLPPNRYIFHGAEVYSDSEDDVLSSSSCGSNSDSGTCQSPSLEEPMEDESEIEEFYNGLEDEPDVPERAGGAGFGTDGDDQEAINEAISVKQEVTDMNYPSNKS

Sirt2 = biological target: T2, Sirt2 (Homo sapiens, UniProt Q8IXJ6); test: Sirt2 inhibition assay
T2 sequence (Q8IXJ6 1-389): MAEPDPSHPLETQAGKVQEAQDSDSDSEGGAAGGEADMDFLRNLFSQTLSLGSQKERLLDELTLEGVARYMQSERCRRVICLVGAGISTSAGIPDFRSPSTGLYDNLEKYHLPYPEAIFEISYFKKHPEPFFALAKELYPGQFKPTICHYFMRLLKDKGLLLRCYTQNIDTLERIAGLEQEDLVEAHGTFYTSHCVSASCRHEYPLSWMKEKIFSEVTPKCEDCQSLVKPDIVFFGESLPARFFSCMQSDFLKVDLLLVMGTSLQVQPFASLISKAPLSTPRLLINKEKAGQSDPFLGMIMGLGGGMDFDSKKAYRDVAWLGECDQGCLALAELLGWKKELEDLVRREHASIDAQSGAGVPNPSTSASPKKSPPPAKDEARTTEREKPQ

Sirt3 = biological target: T3, Sirt3 (Homo sapiens, UniProt Q9NTG7); test: Sirt3 inhibition assay
T3 sequence (Q9NTG7 1-399): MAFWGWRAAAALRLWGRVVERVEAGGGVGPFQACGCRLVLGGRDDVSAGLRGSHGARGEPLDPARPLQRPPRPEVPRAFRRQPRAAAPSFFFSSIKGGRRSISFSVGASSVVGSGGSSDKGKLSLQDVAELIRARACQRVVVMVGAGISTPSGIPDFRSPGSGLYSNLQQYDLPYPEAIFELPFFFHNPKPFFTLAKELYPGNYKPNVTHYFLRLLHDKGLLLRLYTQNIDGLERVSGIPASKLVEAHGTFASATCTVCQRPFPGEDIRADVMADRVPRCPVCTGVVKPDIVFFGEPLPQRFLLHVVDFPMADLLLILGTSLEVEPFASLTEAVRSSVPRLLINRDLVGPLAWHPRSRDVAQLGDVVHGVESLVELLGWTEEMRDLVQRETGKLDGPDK

C[C@H](NC(=O)[C@H](CCCCN)NC(=O)CNC(=O)CNC(=O)[C@@H](NC(=O)[C@H](CO)NC(=O)[C@H](CCCCNC(=S)CCC(=O)O)NC(=O)[C@H](CCCNC(=N)N)NC(=O)[C@H](C)NC(=O)[C@@H](NC(=O)[C@H](CCC(N)=O)NC(=O)[C@@H](N)CCCCN)[C@@H](C)O)[C@@H](C)O)C(=O)O [H3K9TSu, KQTAR(TSuK)STGGKA]
does not inhibit: inhibition of Sirt1 at 100 μM (Sirt1) | inhibition of Sirt2 at 100 μM (Sirt2) | inhibition of Sirt3 at 100 μM (Sirt3)
